Literature values, collected in patent publication EP0374097A2, “Use of peptide isosteres as retroviral protease inhibitors” (CIBA-GEIGY AG, priority 1988, dated 1990).

Test system: gag-Protease von HIV
Settings: stated as known

In the case of Pepstatin, the “Hemmung der gag-Protease von HIV” value is given as “gehemmt”.
